# In ChEMBL document CHEMBL2074010, “Transport function and hepatocellular localization of mrp6 in rat liver” (Mol Pharmacol, 2000):
# Biological target: ATP-binding cassette sub-family C member 2 (Rattus norvegicus, UniProt Q63120)
# Test: TP_TRANSPORTER: uptake in membrane vesicles from Mrp2-expressing Sf9 cells
# Assay type: functional, cell membranes, Membrane vesicle
# Sequence of ATP-binding cassette sub-family C member 2 (Q63120 whole entry): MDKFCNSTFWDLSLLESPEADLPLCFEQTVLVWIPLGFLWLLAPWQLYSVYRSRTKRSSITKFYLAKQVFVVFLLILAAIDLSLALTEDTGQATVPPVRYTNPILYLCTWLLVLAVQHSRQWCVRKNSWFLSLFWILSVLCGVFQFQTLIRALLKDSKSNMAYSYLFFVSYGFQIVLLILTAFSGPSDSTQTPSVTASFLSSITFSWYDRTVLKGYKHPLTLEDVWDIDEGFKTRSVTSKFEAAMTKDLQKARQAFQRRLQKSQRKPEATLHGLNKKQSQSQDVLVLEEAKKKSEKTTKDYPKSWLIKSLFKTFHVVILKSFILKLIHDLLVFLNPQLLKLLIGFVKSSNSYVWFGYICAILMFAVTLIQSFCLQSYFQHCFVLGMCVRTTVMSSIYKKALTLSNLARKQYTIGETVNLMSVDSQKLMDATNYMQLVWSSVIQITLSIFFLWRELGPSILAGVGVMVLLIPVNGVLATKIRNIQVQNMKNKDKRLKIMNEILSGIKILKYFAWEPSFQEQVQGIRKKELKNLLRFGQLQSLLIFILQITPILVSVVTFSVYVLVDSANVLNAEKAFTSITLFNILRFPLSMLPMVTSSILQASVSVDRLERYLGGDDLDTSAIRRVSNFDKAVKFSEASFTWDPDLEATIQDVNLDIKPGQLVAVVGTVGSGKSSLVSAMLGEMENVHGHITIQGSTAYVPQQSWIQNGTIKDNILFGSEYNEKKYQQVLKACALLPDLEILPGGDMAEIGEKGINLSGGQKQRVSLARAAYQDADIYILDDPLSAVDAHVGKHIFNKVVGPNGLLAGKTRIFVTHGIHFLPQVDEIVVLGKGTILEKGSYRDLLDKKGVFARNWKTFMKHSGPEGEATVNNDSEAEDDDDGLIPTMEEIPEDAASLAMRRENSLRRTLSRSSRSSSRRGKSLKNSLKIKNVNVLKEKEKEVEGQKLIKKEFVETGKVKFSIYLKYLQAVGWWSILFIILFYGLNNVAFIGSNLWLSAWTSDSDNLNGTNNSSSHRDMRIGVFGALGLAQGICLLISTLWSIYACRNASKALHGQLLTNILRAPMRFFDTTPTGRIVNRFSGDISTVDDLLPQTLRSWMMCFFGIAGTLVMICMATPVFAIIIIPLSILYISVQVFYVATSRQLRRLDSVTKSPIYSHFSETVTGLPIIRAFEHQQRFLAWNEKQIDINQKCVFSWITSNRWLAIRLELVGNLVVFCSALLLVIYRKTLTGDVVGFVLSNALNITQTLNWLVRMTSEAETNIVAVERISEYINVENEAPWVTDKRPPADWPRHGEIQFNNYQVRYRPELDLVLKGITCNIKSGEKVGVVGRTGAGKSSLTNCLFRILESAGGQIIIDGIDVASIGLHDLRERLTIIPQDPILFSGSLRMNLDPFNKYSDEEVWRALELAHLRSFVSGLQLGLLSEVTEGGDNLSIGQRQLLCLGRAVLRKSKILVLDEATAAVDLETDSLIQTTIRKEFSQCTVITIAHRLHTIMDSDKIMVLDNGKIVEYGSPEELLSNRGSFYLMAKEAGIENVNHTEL
row,SMILES,Activity
1,N[C@@H](CCC(=O)N[C@H](CSc1ccc([N+](=O)[O-])cc1[N+](=O)[O-])C(=O)NCC(=O)O)C(=O)O,is not a substrate [-]
2,CC[C@H](C)[C@H](NC(=O)[C@H](CC(=O)O)NC(=O)[C@H](CC(C)C)NC(=O)[C@H](Cc1cnc[nH]1)NC(=O)[C@@H]1CSSC[C@H](N)C(=O)N[C@@H](CO)C(=O)N[C@H]2CSSC[C@H](NC(=O)[C@H](CCC(=O)O)NC(=O)[C@H](CCCCN)NC(=O)[C@H](CC(=O)O)NC(=O)[C@H](CCSC)NC(=O)[C@H](CC(C)C)NC(=O)[C@H](CO)NC(=O)[C@H](CO)NC2=O)C(=O)N[C@@H](C(C)C)C(=O)N[C@@H](Cc2ccc(O)cc2)C(=O)N[C@@H](Cc2ccccc2)C(=O)N1)C(=O)N[C@H](C(=O)N[C@@H](Cc1c[nH]c2ccccc12)C(=O)O)[C@@H](C)CC [ENDOTHELIN],substrate [+]
3,C[C@]12CC[C@@H]3c4ccc(O)cc4CC[C@H]3[C@@H]1CC[C@@H]2O[C@@H]1O[C@H](C(=O)O)[C@@H](O)[C@H](O)[C@H]1O [ESTRADIOL 17B GLUCURONIDE],is not a substrate [-]
4,CCCCC/C=C\C\C=C/C=C/C=C/[C@@H](SC[C@@H](NC(=O)CC[C@H](N)C(=O)O)C(=O)NCC(=O)O)[C@@H](O)CCCC(=O)O [LEUKOTRIEN C4],is not a substrate [-]
